# Source: patent US20030236246A1, “Method for decreasing capillary permeability in the retina” (priority 2002, published 2003)
# Experiments:
# C57BL/6J mice = experiment: PG-induced breakdown of the BRB in mice after intraocular injection of a vasopermeability factor; assay type: in vivo; conditions: 50 mg/kg/day by gavage for 3 days, then intraocular PGE1 or PGE2 10^-5 M
# Description: Six to seven week old male C57BL/6J mice are treated in accordance with the ARVO resolution on the care of animals in research. Mice are treated by gavage with vehicle or vehicle containing 50 mg/kg/day of PKC412, PTK787, SU1498, or Gleevec. After 3 days of treatment, mice are given an intraocular injection of 1 μl of vehicle containing a vasopermeability factor or vehicle alone.
# Mice are anesthetized with 25 mg/kg of ketamine and 4 mg/kg of xylazine, pupils are dilated with 1% tropicamide. Intraocular injections are performed as previously described with a Harvard pump microinjection apparatus and pulled glass micropipets. Each micropipet is calibrated to deliver 1 μl of vehicle upon depression of a foot switch. […] Some mice are used for quantitative measurement of BRB breakdown using [3H]mannitol and in others leakage of albumin through retinal vessels is assessed by Western blots or immunohistochemistry.
# Six or 24 hours after intraocular injections, mice are given an intraperitoneal injection of 1 μCi / gram body weight of [3H]mannitol (New England Nuclear, Boston, Mass.). […] The vials are weighed and the tissue weights are recorded. […] Radioactivity is counted with a Wallac 1409 Liquid Scintillation Counter (Gaithersburg, Md.). […]
# C57B/J6 mice = experiment: BRB breakdown in mice after intravitreal VEGF, quantitated with [3H]-mannitol tracer; assay type: in vivo
# From the text: Intraperitoneally administered radiolabeled tracer can be used to quantitate BRB breakdown in mice exposed to vascular endothelial growth factor (VEGF). This technique is particularly advantageous with neonatal mice because of the technical difficulty involved with intravascular injections. Also, the comparison of retinas from injected and control eyes to tissues without a blood-tissue barrier corrects for variations in the amount of isotope injected or absorbed into the circulation.
# Ten six- to seven-week-old C57B/J6 mice (Jackson Labs, Bar Harbor, Me.) are weighed to determine the proper dosage of anesthesia and tracer required. Mice are anesthetized with a solution containing 25 mg/kg ketamine (Ketaset; Fort Dodge Animal Health, Fort Dodge, Iowa) and 4 mg/kg rompun (Tranquived; Vedco, St. Joseph, Mo.) diluted 1:10 in saline prior to injection. Five mice are subjected to gavage with 50 mg/kg N-benzoyl staurosporine for three days prior to intravitreal administration of VEGF; the other five mice are subjected to gavage with vehicle.
# Tropicamide (1%) is used to dilate the pupils of anesthetized mice. Under a dissecting microscope, a Harvard injector (PLI 100) is used with a glass pipet pulled to a diameter of 13-20 μm to inject 1 μl of saline containing VEGF (R&D Systems, Minneapolis, Minn.). The eyes are entered posterior to the limbus, directing the pipet toward the optic nerve. The solution is then deposited just in front of the retina without inflicting any damage to the lens. […]
# One ml NCSII (Amersham, Chicago, Ill.) solubilizing solution is added to each vial and the vials are incubated overnight in a 50° C. water bath. […] The specimens are counted on a Wallac 1409 Liquid Scintillation Counter (Gaithersburg, :Md.).
# The counts per mg tissue are determined for treated (with N-benzoyl staurosporine) and untreated retina, lung, and kidney. Ratios of these values for treated or untreated retina/lung or kidney and for lung/kidney are calculated. […]
# [1] = mice, 50 mg/kg by gavage for three days before intravitreal VEGF 10^-6 M, [3H]-mannitol at 6 hours
Compound,PG-induced breakdown of the BRB (C57BL/6J mice),"leakage of radioactive tracer out of the retinal blood vessels (C57B/J6 mice; VEGF-injected mice given 50 mg/kg N-benzoyl staurosporine by gavage for three days, compared to vehicle-gavaged VEGF-injected mice)",retina/kidney ratio (C57B/J6 mice; [1]),retina/lung ratio (cpm per mg of retina/cpm per mg of lung) (C57B/J6 mice; [1])
CO[C@@H]1[C@H](N(C)C(=O)c2ccccc2)C[C@H]2O[C@]1(C)n1c3ccccc3c3c4c(c5c6ccccc6n2c5c31)C(=O)NC4 [N-benzoyl staurosporine],reduces PG-induced breakdown of the BRB,significantly less leakage,0.3881±0.0436,0.6326±0.0656
"Clc1ccc(Nc2nnc(Cc3ccncc3)c3ccccc23)cc1 [PTK787, reference compound]",not,,,
